In US10550111B2, “Pyrimidine urea compound containing isoxazolines and use thereof” (SHENYANG SINOCHEM AGROCHEMICALS R&D CO., LTD, priority 2014, dated 2020):

Experiments:
Type in all cases: in vivo
Zinnia elegans Jacq. = assay: Bioassay of herbicidal activity in greenhouse (further screening)
Procedure: (§1) Determination of herbicidal activity of compounds of the present invention against weeds was carried out by the following procedures:
(§2) Seeds of monocotyledonous and dicotyledonous weeds were sown in nutrition soil in paper pot (7 cm diameter), covered with soil in 1 cm and grown in the greenhouse under good growth conditions (temperature, atmospheric humidity, water supply). The compounds of the present invention as emulsifiable concentrate, were applied in pre-emergence and post-emergence treatment by track sprayer (Engineer Research Ltd., pressure 1.95 kg/cm^2, volume 500 L/hm^2, track speed 1.48 km/h). Pre-emergence treatment was conducted after seeding 24 hours and post-emergence treatment was done when the respective weeds reached predetermined leaf stage (grass weed 2- to 3-leaf stage, broad-leaf weed 2- to 4-leaf stage), the state of growth of the respective weeds were visually observed to determine the growth inhibition rate (%) in accordance with the following evaluation standard.
(§3) Growth inhibition rate (%): 0=no discernible action: 100=all weeds dead or not emerged.

[1] = tested on: Setaria glauca (L.) Beauv.; assay: as above
Procedure: as §1, §2, §3

[2] = tested on: Abutilon theophrasti Medic.; assay: as above
Procedure: as §1, §2, §3

[3] = tested on: Echinochloa crus-galli (L.) Beauv.; assay: as above
Procedure: as §1, §2, §3

[4] = tested on: broad-leaf weeds and grass weeds; assay: General screening of herbicidal activity in greenhouse; conditions: 1000 g a.i./hm^2;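 further: 0 means no visible effect and 100 means all weeds dead or not emerged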
Procedure: as §1, §2, §3

Cn1c(C(F)(F)F)cc(=O)n(-c2cc(C3=NOC(C)(COS(C)(=O)=O)C3)c(Cl)cc2F)c1=O (stereo not drawn) [Compound 88]
Growth inhibition rate, Post-emergence treatment, Zinnia elegans Jacq. (Zinnia elegans Jacq.; dose 7.5 g a.i./hm^2): 98%
Growth inhibition rate, Post-emergence treatment, Zinnia elegans Jacq. (Zinnia elegans Jacq.; dose 15 g a.i./hm^2): 100%
Growth inhibition rate, Post-emergence treatment, Zinnia elegans Jacq. (Zinnia elegans Jacq.; dose 37.5 g a.i./hm^2): 100%
Growth inhibition rate, Post-emergence treatment, Zinnia elegans Jacq. (Zinnia elegans Jacq.; dose 150 g a.i./hm^2): 100%
Growth inhibition rate, Post-emergence treatment, Zinnia elegans Jacq. (Zinnia elegans Jacq.; dose 600 g a.i./hm^2): 100%
Growth inhibition rate, Pre-emergence treatment, Zinnia elegans Jacq. (Zinnia elegans Jacq.; dose 7.5 g a.i./hm^2): 20%
Growth inhibition rate, Pre-emergence treatment, Zinnia elegans Jacq. (Zinnia elegans Jacq.; dose 15 g a.i./hm^2): 30%
Growth inhibition rate, Pre-emergence treatment, Zinnia elegans Jacq. (Zinnia elegans Jacq.; dose 37.5 g a.i./hm^2): 45%
Growth inhibition rate, Pre-emergence treatment, Zinnia elegans Jacq. (Zinnia elegans Jacq.; dose 150 g a.i./hm^2): 100%
Growth inhibition rate, Pre-emergence treatment, Zinnia elegans Jacq. (Zinnia elegans Jacq.; dose 600 g a.i./hm^2): 100%
Growth inhibition rate, Post-emergence treatment, Setaria glauca (L.) Beauv. ([1]; dose 7.5 g a.i./hm^2): 25%
Growth inhibition rate, Post-emergence treatment, Setaria glauca (L.) Beauv. ([1]; dose 15 g a.i./hm^2): 30%
Growth inhibition rate, Post-emergence treatment, Setaria glauca (L.) Beauv. ([1]; dose 37.5 g a.i./hm^2): 45%
Growth inhibition rate, Post-emergence treatment, Setaria glauca (L.) Beauv. ([1]; dose 150 g a.i./hm^2): 70%
Growth inhibition rate, Post-emergence treatment, Setaria glauca (L.) Beauv. ([1]; dose 600 g a.i./hm^2): 98%
Growth inhibition rate, Pre-emergence treatment, Setaria glauca (L.) Beauv. ([1]; dose 7.5 g a.i./hm^2): 65%
Growth inhibition rate, Pre-emergence treatment, Setaria glauca (L.) Beauv. ([1]; dose 15 g a.i./hm^2): 80%
Growth inhibition rate, Pre-emergence treatment, Setaria glauca (L.) Beauv. ([1]; dose 37.5 g a.i./hm^2): 30%
Growth inhibition rate, Pre-emergence treatment, Setaria glauca (L.) Beauv. ([1]; dose 150 g a.i./hm^2): 85%
Growth inhibition rate, Pre-emergence treatment, Setaria glauca (L.) Beauv. ([1]; dose 600 g a.i./hm^2): 100%
Growth inhibition rate, Post-emergence treatment, Abutilon theophrasti Medic. ([2]; dose 7.5 g a.i./hm^2): 98%
Growth inhibition rate, Post-emergence treatment, Abutilon theophrasti Medic. ([2]; dose 15 g a.i./hm^2): 100%
Growth inhibition rate, Post-emergence treatment, Abutilon theophrasti Medic. ([2]; dose 37.5 g a.i./hm^2): 98%
Growth inhibition rate, Post-emergence treatment, Abutilon theophrasti Medic. ([2]; dose 150 g a.i./hm^2): 100%
Growth inhibition rate, Post-emergence treatment, Abutilon theophrasti Medic. ([2]; dose 600 g a.i./hm^2): 100%
Growth inhibition rate, Pre-emergence treatment, Abutilon theophrasti Medic. ([2]; dose 7.5 g a.i./hm^2): 98%
Growth inhibition rate, Pre-emergence treatment, Abutilon theophrasti Medic. ([2]; dose 15 g a.i./hm^2): 100%
Growth inhibition rate, Pre-emergence treatment, Abutilon theophrasti Medic. ([2]; dose 37.5 g a.i./hm^2): 85%
Growth inhibition rate, Pre-emergence treatment, Abutilon theophrasti Medic. ([2]; dose 150 g a.i./hm^2): 100%
Growth inhibition rate, Pre-emergence treatment, Abutilon theophrasti Medic. ([2]; dose 600 g a.i./hm^2): 100%
Growth inhibition rate, Post-emergence treatment, Echinochloa crus-galli (L.) Beauv. ([3]; dose 7.5 g a.i./hm^2): 15%
Growth inhibition rate, Post-emergence treatment, Echinochloa crus-galli (L.) Beauv. ([3]; dose 15 g a.i./hm^2): 20%
Growth inhibition rate, Post-emergence treatment, Echinochloa crus-galli (L.) Beauv. ([3]; dose 37.5 g a.i./hm^2): 25%
Growth inhibition rate, Post-emergence treatment, Echinochloa crus-galli (L.) Beauv. ([3]; dose 150 g a.i./hm^2): 60%
Growth inhibition rate, Post-emergence treatment, Echinochloa crus-galli (L.) Beauv. ([3]; dose 600 g a.i./hm^2): 95%
Growth inhibition rate, Pre-emergence treatment, Echinochloa crus-galli (L.) Beauv. ([3]; dose 7.5 g a.i./hm^2): 5%
Growth inhibition rate, Pre-emergence treatment, Echinochloa crus-galli (L.) Beauv. ([3]; dose 15 g a.i./hm^2): 10%
Growth inhibition rate, Pre-emergence treatment, Echinochloa crus-galli (L.) Beauv. ([3]; dose 37.5 g a.i./hm^2): 15%
Growth inhibition rate, Pre-emergence treatment, Echinochloa crus-galli (L.) Beauv. ([3]; dose 150 g a.i./hm^2): 80%
Growth inhibition rate, Pre-emergence treatment, Echinochloa crus-galli (L.) Beauv. ([3]; dose 600 g a.i./hm^2): 100%
pre-emergence and post-emergence herbicidal activity against broad-leaf weeds and grass weeds [4]: good

CCOC(=O)C1(C)CC(c2cc(-n3c(=O)cc(C(F)(F)F)n(C)c3=O)ccc2Cl)=NO1 (stereo not drawn) [Compound 284]
Growth inhibition rate, Post-emergence treatment, Zinnia elegans Jacq. (Zinnia elegans Jacq.; dose 37.5 g a.i./hm^2): 100%
Growth inhibition rate, Post-emergence treatment, Zinnia elegans Jacq. (Zinnia elegans Jacq.; dose 150 g a.i./hm^2): 100%
Growth inhibition rate, Post-emergence treatment, Zinnia elegans Jacq. (Zinnia elegans Jacq.; dose 600 g a.i./hm^2): 100%
Growth inhibition rate, Pre-emergence treatment, Zinnia elegans Jacq. (Zinnia elegans Jacq.; dose 37.5 g a.i./hm^2): 0%
Growth inhibition rate, Pre-emergence treatment, Zinnia elegans Jacq. (Zinnia elegans Jacq.; dose 150 g a.i./hm^2): 10%
Growth inhibition rate, Pre-emergence treatment, Zinnia elegans Jacq. (Zinnia elegans Jacq.; dose 600 g a.i./hm^2): 35%
Growth inhibition rate, Post-emergence treatment, Setaria glauca (L.) Beauv. ([1]; dose 37.5 g a.i./hm^2): 75%
Growth inhibition rate, Post-emergence treatment, Setaria glauca (L.) Beauv. ([1]; dose 150 g a.i./hm^2): 90%
Growth inhibition rate, Post-emergence treatment, Setaria glauca (L.) Beauv. ([1]; dose 600 g a.i./hm^2): 100%
Growth inhibition rate, Pre-emergence treatment, Setaria glauca (L.) Beauv. ([1]; dose 37.5 g a.i./hm^2): 0%
Growth inhibition rate, Pre-emergence treatment, Setaria glauca (L.) Beauv. ([1]; dose 150 g a.i./hm^2): 10%
Growth inhibition rate, Pre-emergence treatment, Setaria glauca (L.) Beauv. ([1]; dose 600 g a.i./hm^2): 20%
Growth inhibition rate, Post-emergence treatment, Abutilon theophrasti Medic. ([2]; dose 37.5 g a.i./hm^2): 95%
Growth inhibition rate, Post-emergence treatment, Abutilon theophrasti Medic. ([2]; dose 150 g a.i./hm^2): 100%
Growth inhibition rate, Post-emergence treatment, Abutilon theophrasti Medic. ([2]; dose 600 g a.i./hm^2): 100%
Growth inhibition rate, Pre-emergence treatment, Abutilon theophrasti Medic. ([2]; dose 37.5 g a.i./hm^2): 0%
Growth inhibition rate, Pre-emergence treatment, Abutilon theophrasti Medic. ([2]; dose 150 g a.i./hm^2): 50%
Growth inhibition rate, Pre-emergence treatment, Abutilon theophrasti Medic. ([2]; dose 600 g a.i./hm^2): 65%
Growth inhibition rate, Post-emergence treatment, Echinochloa crus-galli (L.) Beauv. ([3]; dose 37.5 g a.i./hm^2): 70%
Growth inhibition rate, Post-emergence treatment, Echinochloa crus-galli (L.) Beauv. ([3]; dose 150 g a.i./hm^2): 80%
Growth inhibition rate, Post-emergence treatment, Echinochloa crus-galli (L.) Beauv. ([3]; dose 600 g a.i./hm^2): 100%
Growth inhibition rate, Pre-emergence treatment, Echinochloa crus-galli (L.) Beauv. ([3]; dose 37.5 g a.i./hm^2): 0%
Growth inhibition rate, Pre-emergence treatment, Echinochloa crus-galli (L.) Beauv. ([3]; dose 150 g a.i./hm^2): 10%
Growth inhibition rate, Pre-emergence treatment, Echinochloa crus-galli (L.) Beauv. ([3]; dose 600 g a.i./hm^2): 20%
pre-emergence and post-emergence herbicidal activity against broad-leaf weeds and grass weeds [4]: good
